Tests used:
[1] = target: T1, hNaV1.6 (Homo sapiens, UniProt Q9UQD0); assay: Automated patch-clamp and photoactivation, hNaV1.6 current in HEK293 cells; assay type: cell-based
T1 construct: expressed in transfected cells

[2] = target: T2, hNaV1.2 (Homo sapiens, UniProt Q99250); assay: Automated patch-clamp and photoactivation, hNaV1.2 current in HEK293 cells; assay type: cell-based; settings: 1 nM, 365 nm, 45 mW/cm^2
T2 construct: expressed in transfected cells

[3] = test system: zebrafish larvae; assay: Zebrafish larvae paralysis model; assay type: in vivo; settings: injected, then illumination
[4] = target: hERG (Homo sapiens, UniProt Q12809); assay: Automated patch-clamp with photocontrol, hERG current in CHO cells; settings: 100 nM; 365 nm, 45 mW/cm^2
[5] = target: human NaV1.6 channel (human) (UniProt Q9UQD0); assay: cell-based or functional assay
[6] = target: human NaV1.2 channel (human) (UniProt Q99250); assay: cell-based or functional assay
[7] = target: human NaV1.1 channel (human) (UniProt P35498); assay: cell-based or functional assay
[8] = target: Kv1.3/KCNA3 (Homo sapiens, UniProt P22001); settings: cited from earlier work
[9] = target: shaker (Drosophila melanogaster, UniProt P08510); settings: cited from earlier work
[10] = target: Kv1.2/KCNA2 (Homo sapiens, UniProt P16389); settings: cited from earlier work
[11] = target: Kv1.6/KCNA6 (Homo sapiens, UniProt P17658); settings: cited from earlier work
[12] = target: Kv1.5/KCNA5 (Homo sapiens, UniProt P22460); settings: cited from earlier work
[13] = target: KCa1.1/KCNMA1 (Homo sapiens, UniProt Q12791); settings: cited from earlier work
[14] = test system: nicotinic acetylcholine receptors (nAChR); settings: cited from earlier work
[15] = target: T3, KV1.2 (Homo sapiens, UniProt P16389); assay: Automated patch-clamp with photocontrol, KV1.2 current in CHO cells; assay type: cell-based; settings: 100 nM; 365 nm, 45 mW/cm^2
T3 construct: expressed in transfected cells; host or cells: CHO (transient)
T3 sequence (P16389 whole entry): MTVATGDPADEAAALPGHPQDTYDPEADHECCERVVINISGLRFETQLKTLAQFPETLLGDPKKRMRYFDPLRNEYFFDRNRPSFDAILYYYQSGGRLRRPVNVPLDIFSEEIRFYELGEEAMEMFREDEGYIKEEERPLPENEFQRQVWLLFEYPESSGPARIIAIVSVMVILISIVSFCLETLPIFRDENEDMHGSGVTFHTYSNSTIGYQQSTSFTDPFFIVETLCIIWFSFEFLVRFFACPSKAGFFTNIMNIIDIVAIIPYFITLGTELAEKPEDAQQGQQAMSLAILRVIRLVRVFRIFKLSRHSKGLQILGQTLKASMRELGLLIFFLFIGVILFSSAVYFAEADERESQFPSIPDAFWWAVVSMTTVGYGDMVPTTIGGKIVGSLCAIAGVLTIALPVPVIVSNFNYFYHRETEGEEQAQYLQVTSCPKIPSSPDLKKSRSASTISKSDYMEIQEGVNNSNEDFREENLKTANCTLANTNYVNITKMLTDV

T2 sequence (Q99250 whole entry): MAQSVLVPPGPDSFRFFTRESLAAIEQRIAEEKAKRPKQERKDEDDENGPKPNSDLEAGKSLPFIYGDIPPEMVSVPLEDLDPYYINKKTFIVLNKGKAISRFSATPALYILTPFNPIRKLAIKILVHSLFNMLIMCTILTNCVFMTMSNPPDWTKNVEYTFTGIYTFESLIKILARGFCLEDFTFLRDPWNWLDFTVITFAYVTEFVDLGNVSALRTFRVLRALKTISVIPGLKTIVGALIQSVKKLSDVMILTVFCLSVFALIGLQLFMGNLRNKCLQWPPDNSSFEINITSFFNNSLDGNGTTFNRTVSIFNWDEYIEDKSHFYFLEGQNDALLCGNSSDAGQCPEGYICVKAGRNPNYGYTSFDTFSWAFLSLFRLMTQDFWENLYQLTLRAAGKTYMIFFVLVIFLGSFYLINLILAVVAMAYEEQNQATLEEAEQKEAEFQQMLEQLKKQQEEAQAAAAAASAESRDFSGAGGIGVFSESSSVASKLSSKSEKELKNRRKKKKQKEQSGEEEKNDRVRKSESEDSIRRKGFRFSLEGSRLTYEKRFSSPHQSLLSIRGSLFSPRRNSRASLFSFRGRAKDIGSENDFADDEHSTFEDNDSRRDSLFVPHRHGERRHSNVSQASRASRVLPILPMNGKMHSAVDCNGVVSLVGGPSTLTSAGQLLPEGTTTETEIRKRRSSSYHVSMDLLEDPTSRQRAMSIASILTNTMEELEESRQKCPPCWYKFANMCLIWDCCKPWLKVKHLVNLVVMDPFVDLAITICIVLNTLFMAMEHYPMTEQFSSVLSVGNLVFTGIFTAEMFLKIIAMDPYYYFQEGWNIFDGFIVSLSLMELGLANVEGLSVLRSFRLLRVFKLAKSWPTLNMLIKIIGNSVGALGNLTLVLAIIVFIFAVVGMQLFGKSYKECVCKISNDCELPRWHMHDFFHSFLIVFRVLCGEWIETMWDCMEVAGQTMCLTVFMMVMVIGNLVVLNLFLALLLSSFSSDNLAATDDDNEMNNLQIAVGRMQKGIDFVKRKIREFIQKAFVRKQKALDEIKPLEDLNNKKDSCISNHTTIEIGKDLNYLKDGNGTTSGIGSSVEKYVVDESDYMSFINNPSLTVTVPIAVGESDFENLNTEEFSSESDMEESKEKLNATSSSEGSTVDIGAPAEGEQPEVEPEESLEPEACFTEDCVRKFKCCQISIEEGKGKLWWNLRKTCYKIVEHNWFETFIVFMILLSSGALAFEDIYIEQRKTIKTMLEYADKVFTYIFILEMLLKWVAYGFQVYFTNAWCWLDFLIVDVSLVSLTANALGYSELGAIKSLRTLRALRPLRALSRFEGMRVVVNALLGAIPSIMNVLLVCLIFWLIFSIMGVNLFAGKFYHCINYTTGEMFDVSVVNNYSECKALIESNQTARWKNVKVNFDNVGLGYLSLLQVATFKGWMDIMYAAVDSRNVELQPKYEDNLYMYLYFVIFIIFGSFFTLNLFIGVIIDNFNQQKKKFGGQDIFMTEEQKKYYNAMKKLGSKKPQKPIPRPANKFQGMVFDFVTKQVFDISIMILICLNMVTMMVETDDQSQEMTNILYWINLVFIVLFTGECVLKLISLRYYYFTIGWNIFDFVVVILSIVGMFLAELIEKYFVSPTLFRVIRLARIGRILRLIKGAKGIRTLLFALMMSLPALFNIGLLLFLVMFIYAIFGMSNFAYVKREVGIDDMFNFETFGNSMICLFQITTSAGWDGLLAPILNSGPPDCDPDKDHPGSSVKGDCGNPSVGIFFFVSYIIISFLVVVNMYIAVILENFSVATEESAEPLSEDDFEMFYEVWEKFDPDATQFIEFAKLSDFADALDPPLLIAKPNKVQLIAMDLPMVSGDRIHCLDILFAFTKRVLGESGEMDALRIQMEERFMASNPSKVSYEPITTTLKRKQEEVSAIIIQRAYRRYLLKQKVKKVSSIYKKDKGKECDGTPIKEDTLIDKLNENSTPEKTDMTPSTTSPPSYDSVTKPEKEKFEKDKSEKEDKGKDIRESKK
T1 sequence (Q9UQD0 whole entry): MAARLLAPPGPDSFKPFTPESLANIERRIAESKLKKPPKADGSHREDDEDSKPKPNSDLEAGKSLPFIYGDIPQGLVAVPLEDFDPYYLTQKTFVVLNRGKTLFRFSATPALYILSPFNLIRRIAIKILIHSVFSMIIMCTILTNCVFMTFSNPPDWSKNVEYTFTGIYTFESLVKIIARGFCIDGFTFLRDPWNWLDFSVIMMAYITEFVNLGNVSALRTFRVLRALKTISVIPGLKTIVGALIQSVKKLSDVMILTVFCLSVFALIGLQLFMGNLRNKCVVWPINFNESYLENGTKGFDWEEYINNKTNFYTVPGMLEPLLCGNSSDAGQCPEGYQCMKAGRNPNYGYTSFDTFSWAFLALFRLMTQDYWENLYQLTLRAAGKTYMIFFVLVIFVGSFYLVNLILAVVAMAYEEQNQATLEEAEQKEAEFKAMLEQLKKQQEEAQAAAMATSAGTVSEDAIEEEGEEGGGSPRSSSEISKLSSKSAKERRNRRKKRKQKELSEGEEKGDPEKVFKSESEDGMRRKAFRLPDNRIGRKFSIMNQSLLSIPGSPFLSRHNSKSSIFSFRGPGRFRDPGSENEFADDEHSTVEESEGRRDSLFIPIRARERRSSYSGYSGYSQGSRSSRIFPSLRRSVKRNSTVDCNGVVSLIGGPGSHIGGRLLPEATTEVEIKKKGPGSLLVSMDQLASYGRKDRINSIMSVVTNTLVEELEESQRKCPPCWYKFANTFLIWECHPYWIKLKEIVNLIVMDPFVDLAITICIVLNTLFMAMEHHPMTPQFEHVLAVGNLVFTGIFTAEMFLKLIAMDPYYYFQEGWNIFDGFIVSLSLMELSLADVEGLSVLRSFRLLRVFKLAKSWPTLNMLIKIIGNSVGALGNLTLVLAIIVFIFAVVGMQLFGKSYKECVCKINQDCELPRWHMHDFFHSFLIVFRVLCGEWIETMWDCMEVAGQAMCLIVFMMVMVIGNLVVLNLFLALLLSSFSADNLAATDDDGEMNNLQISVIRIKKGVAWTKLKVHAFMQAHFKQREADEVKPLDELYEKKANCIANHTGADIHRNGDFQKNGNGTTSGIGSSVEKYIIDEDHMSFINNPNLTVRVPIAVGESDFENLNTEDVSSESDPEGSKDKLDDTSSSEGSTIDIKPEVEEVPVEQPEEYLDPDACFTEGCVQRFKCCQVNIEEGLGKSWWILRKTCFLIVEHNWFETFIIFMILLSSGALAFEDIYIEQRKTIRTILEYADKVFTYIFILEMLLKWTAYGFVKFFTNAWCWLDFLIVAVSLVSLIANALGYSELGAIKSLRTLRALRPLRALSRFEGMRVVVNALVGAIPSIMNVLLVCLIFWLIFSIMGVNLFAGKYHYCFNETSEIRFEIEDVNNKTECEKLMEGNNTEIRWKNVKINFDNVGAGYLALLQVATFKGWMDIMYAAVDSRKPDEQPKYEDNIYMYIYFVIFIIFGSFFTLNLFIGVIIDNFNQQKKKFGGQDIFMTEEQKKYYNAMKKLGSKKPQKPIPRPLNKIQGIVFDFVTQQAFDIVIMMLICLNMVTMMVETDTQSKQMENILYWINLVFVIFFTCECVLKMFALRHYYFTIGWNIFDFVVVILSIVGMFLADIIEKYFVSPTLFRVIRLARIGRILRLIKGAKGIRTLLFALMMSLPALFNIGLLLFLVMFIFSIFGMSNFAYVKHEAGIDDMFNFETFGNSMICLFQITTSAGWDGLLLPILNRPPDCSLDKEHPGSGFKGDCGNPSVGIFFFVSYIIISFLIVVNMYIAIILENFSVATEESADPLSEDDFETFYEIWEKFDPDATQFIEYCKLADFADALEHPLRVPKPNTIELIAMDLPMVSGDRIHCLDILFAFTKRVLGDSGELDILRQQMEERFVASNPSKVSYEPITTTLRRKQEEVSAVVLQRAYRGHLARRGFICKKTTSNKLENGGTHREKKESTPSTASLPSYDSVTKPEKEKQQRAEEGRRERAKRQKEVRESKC
Kv1.2/KCNA2, sequence (P16389 whole entry): as the sequence (P16389 whole entry) above
human NaV1.2 channel (human), sequence (Q99250 whole entry): as the sequence (Q99250 whole entry) above
Kv1.3/KCNA3, sequence (P22001 whole entry): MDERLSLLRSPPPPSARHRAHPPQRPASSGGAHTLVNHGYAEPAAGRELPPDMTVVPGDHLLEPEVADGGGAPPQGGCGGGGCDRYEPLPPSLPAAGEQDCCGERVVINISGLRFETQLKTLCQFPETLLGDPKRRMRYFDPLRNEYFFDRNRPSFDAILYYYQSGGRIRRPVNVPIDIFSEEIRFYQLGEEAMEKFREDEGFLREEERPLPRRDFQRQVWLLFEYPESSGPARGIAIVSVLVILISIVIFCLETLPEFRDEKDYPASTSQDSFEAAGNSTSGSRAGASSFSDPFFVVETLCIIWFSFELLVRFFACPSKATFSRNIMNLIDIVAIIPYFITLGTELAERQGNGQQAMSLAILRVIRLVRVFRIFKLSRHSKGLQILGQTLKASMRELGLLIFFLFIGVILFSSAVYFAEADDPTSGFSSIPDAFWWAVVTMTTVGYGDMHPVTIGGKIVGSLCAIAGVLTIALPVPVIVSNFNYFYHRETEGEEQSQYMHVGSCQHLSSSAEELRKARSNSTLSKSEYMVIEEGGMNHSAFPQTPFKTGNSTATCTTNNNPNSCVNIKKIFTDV

CC[C@H](C)[C@@H]1NC(=O)CNC(=O)[C@H](CC(C)C)NC(=O)[C@@H](NC(=O)CN)CSSC[C@@H]2NC(=O)[C@@H]3CSSC[C@@H](C(=O)N[C@@H](CCCCN)C(=O)N[C@@H](Cc4ccc(O)cc4)C(=O)N[C@@H](CCC(N)=O)C(=O)N[C@H](C(=O)N[C@@H](CCCCN)C(N)=O)[C@@H](C)CC)NC(=O)[C@H](Cc4c[nH]c5ccccc45)NC(=O)[C@H](CCCNC(=N)N)NC(=O)[C@H]([C@@H](C)O)NC(=O)[C@H](CCCCN)NC(=O)[C@H](CCCNC(=N)N)NC(=O)[C@H](CO)NC(=O)[C@H](CSSC[C@H](NC(=O)[C@H](C)NC(=O)[C@H](CCCCN)NC(=O)[C@H](Cc4ccccc4)NC1=O)C(=O)N[C@@H](CC(N)=O)C(=O)N1CCC[C@H]1C(=O)N[C@@H](CO)C(=O)N[C@@H](CC(N)=O)C(=O)N[C@@H](CC(=O)O)C(=O)N[C@@H](CCC(N)=O)C(=O)N3)NC(=O)[C@H](C(C)C)NC(=O)[C@H](CC(C)C)NC(=O)[C@H](CCCCN)NC(=O)[C@H](CO)NC(=O)[C@H](CO)NC(=O)[C@H](CCCCN)NC2=O [uncaged HwTxIV-Nvoc]
IC50 ([1]; FIG. 2a / FIG. 3f series, caged vs non-caged vs uncaged, holding −100 mV, read-out: IC50 NaV1.6 current inhibition): 15.2 nM

AaHII-R^62K-Nvoc: Nvoc-grafted analogue of AaHII wherein Arg62 was replaced by Lys62
UV-dependent effect on hNaV1.2 current after uncaging [2]: slowing of inactivation
UV-dependent effect on hNaV1.2 current after uncaging ([2]; listed as AaHIIR^62K-Nvoc): activation
Paralysis of zebrafish larvae after illumination [3]: paralysis in all larvaes

BeKm1-Nvoc: BeKm1 (hERG blocker) caged with a Nvoc protecting group (RPTDIKCSESYQCFPVCKSRFGKTNGRCVNGFCDCF)
Effect of Nvoc photolysis by-product on NaV1.6 ([1]; by-product from uncaging 100 nM, negative control): inert
UV-dependent effect on hERG current after uncaging [4]: block

HwTxIV analog (HwTxIVG^1G^4K^36) (peptide)
IC50 of NaV1.6 current inhibition [5]: 22.4 nM
IC50 of hNaV1.2 current inhibition [6]: 3.23 nM
IC50 of hNaV1.1 current inhibition [7]: 3.6 nM

QFTNVSCTTSKECWSVCQRLHNTSRGKCMNKKCRCYS [Charybdotoxin]
Inhibition of Kv1.3/KCNA3 [8]: nanomolar range
Ki [9]: 227 nM
Inhibition of Kv1.2/KCNA2 [10]: nanomolar range
Ki [11]: 22 nM
Kd [12]: > 100 nM
IC50 [13]: 5.9 nM
Interaction with nicotinic acetylcholine receptors [14]: weak interaction

charybdotoxin-Nvoc
UV-dependent effect on KV1.2 current after uncaging [15]: block

From patent US20240409594A1, “PHOTOA[…] CHANNEL MODULATOR” (INSTITUT NATIONAL DE LA SANTÉ ET DE LA RECHERCHE MÉDICALE, priority 2021, published 2024)
